Where a SMILES comes first, the peptide text is derived from it.
Assay: U-tube lucigenin (chloride) transport experiment
Conditions: 1 mM in chloroform, 20 mM MOPS, 100 mM NaCl, pH 7.4, 25 °C, up to 24 h, UV at 455 nm
Description: To assess if these compounds can act as cation carriers, U-tube experiments for sodium picrate transport were performed on 1, Cu(II)[1]Cl2 and Cu(II)[2]Cl2. […] Similarly, a U-tube experiment for chloride transport was performed using lucigenin.[4],[40]
5.7 Preparation of large unilamellar vesicles for CF release assays
A 50 mM 5(6)-carboxyfluorescein (CF) solution in MOPS buffer (20 mM MOPS, 100 mM NaCl, pH 7.4) was prepared by dissolving 5/6-CF in MOPS buffer, adding a sodium hydroxide (1M) solution dropwise until pH 11 was reached. The resulting solution was the slowly acidified to pH 7.4.
EYPC-cholesterol (4:1) 800 nm vesicles were prepared as described above, using the above mentioned 5(6)-carboxyfluorescein (CF) (50 mM) solution. […]
The U-tube was incubated in a water bath at 25 °C and the chloroform phase was stirred at 300 rpm during the entire experiment, ensuring efficient diffusion of any potential carrier-ion complex to the receiving phase. Aliquots (1 mL) were taken from the receiving phase and analysed for the presence of picrate by UV spectroscopy (at 356 nm). […]
Figure S11: U-tube metal picrate transport data for foldamer 1 (brown), Cu[2]Cl2 (black), Cu[1]Cl2 (green), and the control transporter, dibenzo-18-crown-6 (red). Absorbance at 356 nm. […]
Aliquots (1 mL) were taken from the receiving phase and analysed for the presence of lucigenin by UV spectroscopy (at 455 nm). […]

CC(C)(NC(=O)C(C)(C)NC(=O)C(C)(C)NC(=O)C(C)(C)NC(=O)C(C)(C)n1cc(CN(Cc2ccccn2)Cc2ccccn2)nn1)C(=O)NC(C)(C)C(=O)NC(C)(C)C(=O)NC(C)(C)C(=O)OCC[Si](C)(C)C [foldamer 2] (HELM PEPTIDE1{[CC(C)(C(=O)[*:2])n1cc(CN(Cc2ccccn2)Cc2ccccn2)nn1].[Aib].[Aib].[Aib].[Aib].[Aib].[Aib].[Aib].[C[Si](C)(C)CCO[*:1]]}$$$$V2.0)
chloride (lucigenin) transport through the organic phase: no chloride was carried through the organic phase

— article PMC7481839, “Switchable foldamer ion channels with antibacterial activity” (Chemical Science, 2020)
